From US20130101684A1, “Compounds, Compositions, And Methods For Reducing Or Eliminating Bitter Taste” (Chromocell Corporation, priority 2010, published 2013)
Read-outs that look alike come from different tables or passages of the source.

What was measured:
Assay type in all cases: in vivo, humans
[1] = system: bitter taste of KCl foodstuff slurries; assay: Two-alternative forced choice (2AFC) sip and spit test of KCl turkey foodstuff slurries; conditions: turkey slurry with KCl 1.6%, 1% EtOH, 2AFC vs KCl slurry standard, dash = at none of the tested conc.; for minimal effective concentration: Homo sapiens
Description: Edible KCl food compositions (“KCl test foodstuff slurries”) were prepared as follows. Dehydrated, salt-free turkey powder was weighed and mixed with various amounts of KCl and/or NaCl and then solubilized with boiling water to create a homogenized solubilized turkey slurry. Varying amounts of the test compounds were dissolved in an amount of ethanol or water (depending on the solubility of the compound) to create a 5 mg/mL stock compound solution. An amount of this stock compound solution was then added to the turkey slurry. Enough EtOH is then added to the resulting stock compound/turkey slurry so that the slurry contains 1% EtOH. The slurry was again homogenized by boiling and mixing and allowed to cool to yield the final KCl test foodstuff slurry for taste testing. KCl foodstuff slurry standards were similarly prepared without any test compound. […] The effect of the test compounds on the perception of the bitter taste of KCl foodstuff slurries in humans was evaluated using a two-alternative-forced-choice “sip and spit” test as follows. In a blind taste test, panelists received two portions of turkey slurry—one portion being the KCl foodstuff slurry standard and the other being one of the KCl test foodstuff slurries (each prepared as described in Example 5). The panelists tasted each of the portions by sipping and spitting. Each sample was tested in 2-4 discrete taste test experiments. Panelists were asked to rinse with water, eat a cracker, and wait about 10 minutes between samples. In each case, the panelists were asked to compare the bitter taste of the two turkey samples to each other (i.e. panelists were asked to indicate which sample was less bitter).

[2] = system: bitter taste of an aqueous solution of KCl; assay: Sip and spit taste test of aqueous KCl test solutions, bitterness rated 0-15 against KCl solution standards; conditions: aqueous KCl 4.85 g/L, 1% EtOH, human panel, vs KCl solution standard, dash = at none of the tested conc.
Description: Edible KCl solution compositions (“KCl test solutions”) were prepared by first dissolving varying amounts of the test compounds in an amount of ethanol or water (depending on the solubility of the compound) to create a 5 mg/mL stock compound solution. An amount of this stock compound solution is then added to an aqueous KCl solution. Enough EtOH is then added to the resulting stock compound/KCl solution so that the final KCl test solution contains 1% EtOH. KCl solution standards were similarly prepared by dissolving various amounts of KCl in water and ethanol without adding any test compound. […] The effect of the test compounds on the perception of the bitter taste of an aqueous solution of KCl in humans was evaluated using a “sip and Spit” test as follows. A set of KCl solutions standards was developed and each standard solution was assigned a bitterness taste score of 0-15 (corresponding to aqueous KCl concentrations of 0 mM-120 mM). Panelists were trained to recognize these standards. In addition, before each day of testing, panelists were tested to see if they could determine differences in taste between the standard solutions, if a panelist was unable to recognize a change in KCl concentration, they were excluded from the panel for that day. In a blind taste test, panelists were asked to compare the bitter taste of a small quantity (e.g. 8 ml) of each of the KCl Test Solutions to the taste of a KCl solution standard, without swallowing (see, e.g., Table 1). Specifically, panelists were asked to rate the bitterness of each KCl Test Solution on a scale of 0-15 using the same scale developed for the KCl solution standards. Each sample was tested in 2-4 discrete taste test experiments. Panelists were asked to rinse with water, eat a cracker, and wait approximately 10 minutes between samples.

[3] = system: bitter taste of an aqueous solution of potassium lactate; assay: Sip and spit taste test of aqueous potassium lactate test solutions; conditions: aqueous potassium lactate (KLac) 41 g/L, 1% EtOH, human panel, dash = at none of the tested conc.
Description: A set of KCl solutions standards was developed and each standard solution was assigned a bitterness taste score of 0-15 (corresponding to aqueous KCl concentrations of 0 mM-120 mM). Panelists were trained to recognize these standards. In addition, before each day of testing, panelists were tested to see if they could determine differences in taste between the standard solutions, if a panelist was unable to recognize a change in KCl concentration, they were excluded from the panel for that day. In a blind taste test, panelists were asked to compare the bitter taste of a small quantity (e.g. 8 ml) of each of the KCl Test Solutions to the taste of a KCl solution standard, without swallowing (see, e.g., Table 1). Specifically, panelists were asked to rate the bitterness of each KCl Test Solution on a scale of 0-15 using the same scale developed for the KCl solution standards. Each sample was tested in 2-4 discrete taste test experiments. Panelists were asked to rinse with water, eat a cracker, and wait approximately 10 minutes between samples. Edible potassium lactate solution compositions (“potassium lactate test solutions”) were prepared by first dissolving varying amounts of the test compounds in an amount of ethanol or water (depending on the solubility of the compound) to create a 5 mg/mL stock compound solution. An amount of this stock compound solution is then added to an aqueous potassium lactate solution. Enough EtOH is then added to the resulting stock compound/potassium lactate solution so that the final potassium lactate test solution contains 1% EtOH. Potassium lactate solution standards were similarly prepared by dissolving various amounts of potassium lactate in water and ethanol without adding any test compound. […] The effect of the test compounds on the perception of the bitter taste of an aqueous solution of potassium lactate in humans was evaluated using the “sip and spit” test described in Example 2.

[4] = read-out: Conc. at Which At Least 50% of Panelist Discerned Decrease in Bitter Taste
[5] = read-out: Conc. Where Decrease in Bitter Taste Discerned and p ≦ 0.1
[6] = read-out: Conc. Where Decrease in Bitter Taste Was Discerned
[7] = read-out: Conc. at Which At Least 50% of Panelist Discerned Decrease in Bitter Taste and p ≦ 0.1

SMILES: COc1cc(CO)ccc1OCc1ccccc1C [Compound 1]
- minimal effective concentration [1, 4]: 1 µg/mL

SMILES: COc1cc(/C=N/c2ccccc2C)ccc1O [Compound 2]
- minimal effective concentration [2, 5]: 1 µg/mL
- minimal effective concentration [1, 4]: 10 µg/mL

SMILES: CCOc1ccc(CNc2ccccc2C)cc1OC [Compound 3]
- minimal effective concentration [2, 5]: 2 µg/mL
- minimal effective concentration [2, 6]: 2 µg/mL
- minimal effective concentration [3, 5]: 1 µg/mL

SMILES: CCOc1cc(CNc2ccccc2SC)ccc1OC [Compound 4]
- minimal effective concentration [2, 5]: 10 µg/mL

SMILES: COc1cccc(CNc2cccc(C)c2)c1OC [Compound 5]
- minimal effective concentration [2, 6]: 10 µg/mL

SMILES: CCOc1cc(CNc2cccc(Cl)c2C)ccc1OC [Compound 6]
- minimal effective concentration [2, 6]: 1 µg/mL

SMILES: COc1ccc(OC)c(CNc2cc(C)ccc2C)c1 [Compound 7]
- Conc. Where Decrease in Bitter Taste Discerned and p ≦ 0.1 [2]: 1 ppm
- Conc. Where Decrease in Bitter Taste Was Discerned [2]: 1 ppm
- Conc. at Which At Least 50% of Panelist Discerned Decrease in Bitter Taste [1]: 1 ppm

SMILES: COc1ccc(CNc2ccc(Br)cc2C)cc1OC [Compound 8]
- minimal effective concentration [2, 6]: 1 µg/mL

SMILES: CCOc1cc(CNc2ccccc2)ccc1OC [Compound 10]
- Conc. Where Decrease in Bitter Taste Discerned and p ≦ 0.1 [2]: 1 ppm

SMILES: CCOc1cc(CNc2cc(C)ccc2C)ccc1OC [Compound 12]
- minimal effective concentration [2, 5]: 10 µg/mL
- minimal effective concentration [1, 4]: 10 µg/mL

SMILES: COc1ccc(CNc2cc(C)ccc2C)cc1OC [Compound 14]
- Conc. Where Decrease in Bitter Taste Discerned and p ≦ 0.1 [2]: 1 ppm
- Conc. Where Decrease in Bitter Taste Was Discerned [3]: 5 ppm

SMILES: COc1cccc(CNc2cc(C)ccc2C)c1OC [Compound 15]
- minimal effective concentration [2, 5]: 10 µg/mL
- minimal effective concentration [1, 4]: 10 µg/mL
- minimal effective concentration [1, 7]: 10 µg/mL

SMILES: CCOc1ccc(CNc2ccc(C)cc2C)cc1OC [Compound 17]
- Conc. Where Decrease in Bitter Taste Was Discerned [2]: 1 ppm
- Conc. Where Decrease in Bitter Taste Was Discerned [3]: 1 ppm

SMILES: COc1ccccc1CNc1cc(C)ccc1OC [Compound 19]
- minimal effective concentration [2, 5]: 1 µg/mL
- minimal effective concentration [2, 6]: 1 µg/mL
- minimal effective concentration [1, 7]: 10 µg/mL

SMILES: COc1ccc(NCc2ccccc2C)cc1OC [Compound 20]
- minimal effective concentration [2, 5]: 1 µg/mL
- minimal effective concentration [3, 5]: 5 µg/mL

SMILES: COc1cc(CNc2cccc(C)c2C)ccc1OCc1ccccc1 [Compound 22]
- minimal effective concentration [2, 5]: 1 µg/mL

SMILES: COC(=O)c1ccccc1NC(=O)c1c(Cl)cnn1C [Compound 27]
- minimal effective concentration [1, 4]: 30 µg/mL

SMILES: CCn1ncc(Cl)c1C(=O)Nc1cc(Cl)ccc1Cl [Compound 28]
- Conc. at Which At Least 50% of Panelist Discerned Decrease in Bitter Taste [1]: 10 ppm

SMILES: CCn1ncc(Cl)c1C(=O)Nc1cccc(Cl)c1Cl [Compound 29]
- Conc. Where Decrease in Bitter Taste Discerned and p ≦ 0.1 [2]: 10 ppm
- Conc. Where Decrease in Bitter Taste Was Discerned [3]: 5 ppm
- Conc. at Which At Least 50% of Panelist Discerned Decrease in Bitter Taste [1]: 1 ppm
- Conc. at Which At Least 50% of Panelist Discerned Decrease in Bitter Taste and p ≦ 0.1 [1]: 1 ppm

SMILES: COC(=O)c1ccc(C)c(NC(=O)c2c(Cl)cnn2C)c1 [Compound 31]
- Conc. at Which At Least 50% of Panelist Discerned Decrease in Bitter Taste [1]: 1 ppm

SMILES: Cn1ncc(Cl)c1C(=O)Nc1ccccc1C(N)=O [Compound 33]
- minimal effective concentration [2, 6]: 1 µg/mL

SMILES: CCn1ccc(C(=O)Nc2cc(OC)c(OC)cc2C(=O)OC)n1 [Compound 35]
- minimal effective concentration [2, 5]: 1 µg/mL
- minimal effective concentration [2, 6]: 1 µg/mL
- minimal effective concentration [1, 4]: 10 µg/mL

SMILES: CCn1ccc(C(=O)Nc2ccccc2C(=O)OC)n1 [Compound 36]
- minimal effective concentration [2, 5]: 10 µg/mL
- minimal effective concentration [1, 4]: 10 µg/mL

SMILES: CC(=O)Oc1ccc(C2Nc3c(C(=O)O)cccc3C3C=CCC32)cc1 (centres unmarked) [Compound 39]
- minimal effective concentration [1, 7]: 10 µg/mL

SMILES: COC(=O)c1cccc2c1NC(c1ccc(Cl)cc1)C1CC=CC21 (centres unmarked) [Compound 42]
- minimal effective concentration [1, 4]: 1 µg/mL

SMILES: O=C(O)c1cc(Br)cc2c1NC(c1ccc(Cl)cc1)C1CC=CC21 (centres unmarked) [Compound 43]
- minimal effective concentration [2, 6]: 1 µg/mL

SMILES: Cc1c2ccccc2nc2c(F)c(N3CCN(C)CC3)c(F)c(F)c12 [Compound 44]
- minimal effective concentration [2, 5]: 10 µg/mL
- minimal effective concentration [2, 6]: 10 µg/mL
- minimal effective concentration [3, 5]: 10 µg/mL
- minimal effective concentration [1, 4]: 10 µg/mL

SMILES: Cc1c2ccccc2nc2c(F)c(N3CCCC3)c(F)c(F)c12 [Compound 45]
- minimal effective concentration [2, 5]: 0.1 µg/mL
- minimal effective concentration [1, 4]: 1 µg/mL

SMILES: Cc1ccc2nc3c(F)c(N4CCOCC4)c(F)c(F)c3c(C)c2c1 [Compound 46]
- minimal effective concentration [2, 5]: 1 µg/mL
- minimal effective concentration [3, 6]: 30 µg/mL
- minimal effective concentration [1, 4]: 1 µg/mL

SMILES: Cc1nc2c(C)ccc(C)c2c(O)c1CN1CCN(c2ccccc2)CC1 [Compound 47]
- minimal effective concentration [1, 4]: 10 µg/mL
- minimal effective concentration [1, 7]: 10 µg/mL

SMILES: Cc1nc2c(C)cccc2c(O)c1CN1CCN(c2ccccc2)CC1 [Compound 48]
- minimal effective concentration [2, 5]: 1 µg/mL
- minimal effective concentration [3, 5]: 1 µg/mL
- minimal effective concentration [3, 6]: 1 µg/mL
- minimal effective concentration [1, 4]: 10 µg/mL

SMILES: CCCC(=O)Nc1ccc(C)c(Cl)c1 [Compound 50]
- minimal effective concentration [2, 6]: 1 µg/mL

SMILES: COc1ccc(NC(=O)CCOc2cccc(C)c2)cc1 [Compound 52]
- Conc. Where Decrease in Bitter Taste Discerned and p ≦ 0.1 [2]: 10 ppm
- Conc. Where Decrease in Bitter Taste Discerned and p ≦ 0.1 [3]: 30 ppm
- Conc. at Which At Least 50% of Panelist Discerned Decrease in Bitter Taste and p ≦ 0.1 [1]: 10 ppm

SMILES: Cc1ccc(NC(=O)CCOc2ccccc2)c(C)c1 [Compound 54]
- minimal effective concentration [1, 4]: 1 µg/mL
